Toxic doses and inconclusive results are not listed. No stated cut-off is given here; in the data, active means T/C of 150% or more; inactive means T/C below 125%.
Test system: L1210 leukemia ip in BDF1 mice, survival T/C
Experiment: NCI In Vivo Anticancer Drug Screen. Data for tumor model L1210 Leukemia (intraperitoneal) in B6D2F1 (BDF1) mice
Conditions: endpoint: mean survival time, higher = longer survival
Summary of the method: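 Each compound was tested against a transplantable tumor grown in mice. The endpoint was survival, with treated animals benchmarked against vehicle controls as a simple ratio.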

Measured: T/C

COc1cc2c(cc1I)-c1c(cc(OC)c(OC)c1OC)CC[C@@H]2NC(C)=O
inactive: dose: 17.0 mg/kg/injection, schedule: Q01DX Z (ip), vehicle: carboxymethylcellulose (CMC) 102 % of control | dose: 26.0 mg/kg/injection, schedule: Q01DX Z (ip), vehicle: carboxymethylcellulose (CMC) 108 % of control | dose: 40.0 mg/kg/injection, schedule: Q01DX Z (ip), vehicle: carboxymethylcellulose (CMC) 119 % of control | dose: 49.0 mg/kg/injection, schedule: Q01DX Z (ip), vehicle: carboxymethylcellulose (CMC) 103 % of control | dose: 50.0 mg/kg/injection, schedule: Q01DX009 (ip), vehicle: saline sonified 108 % of control | dose: 60.0 mg/kg/injection, schedule: Q01DX Z (ip), vehicle: carboxymethylcellulose (CMC) 117 % of control | dose: 73.0 mg/kg/injection, schedule: Q01DX Z (ip), vehicle: carboxymethylcellulose (CMC) 103 % of control | dose: 90.0 mg/kg/injection, schedule: Q01DX Z (ip), vehicle: carboxymethylcellulose (CMC) 102 % of control | dose: 100.0 mg/kg/injection, schedule: Q01DX009 (ip), vehicle: saline sonified 106 % of control | dose: 100.0 mg/kg/injection, schedule: Q04DX003 (ip), vehicle: Klucel (hydroxypropylcellulose) (HPC) 99 % of control | dose: 110.0 mg/kg/injection, schedule: Q01DX Z (ip), vehicle: carboxymethylcellulose (CMC) 103 % of control | dose: 200.0 mg/kg/injection, schedule: Q01DX009 (ip), vehicle: saline sonified 119 % of control | dose: 200.0 mg/kg/injection, schedule: Q04DX003 (ip), vehicle: Klucel (hydroxypropylcellulose) (HPC) 99 % of control

CCCCCCCCCCCCSC(=O)NCCC
inactive: dose: 100.0 mg/kg/injection, schedule: Q01DX009 (ip), vehicle: other 95 % of control | dose: 200.0 mg/kg/injection, schedule: Q01DX009 (ip), vehicle: other 90 % of control | dose: 400.0 mg/kg/injection, schedule: Q01DX009 (ip), vehicle: other 92 % of control

Cc1ccc(C/C(Cc2ccccc2)=N/O)cc1
inactive: dose: 25.0 mg/kg/injection, schedule: Q04DX002 (ip), vehicle: Klucel (hydroxypropylcellulose) (HPC) 101 % of control | dose: 50.0 mg/kg/injection, schedule: Q04DX002 (ip), vehicle: Klucel (hydroxypropylcellulose) (HPC) 111 % of control | dose: 100.0 mg/kg/injection, schedule: Q04DX002 (ip), vehicle: Klucel (hydroxypropylcellulose) (HPC) 93 % of control | dose: 100.0 mg/kg/injection, schedule: Q04DX002 (ip), vehicle: saline 111 % of control | dose: 200.0 mg/kg/injection, schedule: Q04DX002 (ip), vehicle: Klucel (hydroxypropylcellulose) (HPC) 108 % of control | dose: 200.0 mg/kg/injection, schedule: Q04DX002 (ip), vehicle: saline 97 % of control | dose: 400.0 mg/kg/injection, schedule: Q04DX002 (ip), vehicle: saline 87 % of control

— PubChem BioAssay AID248 (DTP/NCI, 2004)
